Results reported in paper PMC4459817, “Vasculotide reduces endothelial permeability and tumor cell extravasation in the absence of binding to or agonistic activation of Tie2” (EMBO Molecular Medicine, 2015).

Tested on: human Tie2-Fc (extracellular domain of Tie2)
Assay: pull-down assay, human Tie2-Fc
Type: binding
Conditions: human Tie2-Fc on protein A sepharose; rhAng1 20 ng or VT 100 ng, pH 7.4, 4°C; Fig9A,B
Source text: To better understand the difficulties we had in observing Tie2 activation by VT, we sought to characterize the binding affinity and kinetics of VT to Tie2. Purified human or mouse Tie2-Fc (i.e., Fc-conjugated extracellular domains of Tie2) were first coupled to protein A sepharose beads for pull-down experiments (Fig9A and B) or immobilized on a Biacore CM5 sensor chip for surface plasmon resonance (SPR) experiments (Fig9C and Supplementary Fig S3).
Figure 9 Binding of Vasculotide vs. Ang1 variants to the extracellular domain of Tie2 • A–B Pull-down assay. Input ligands—rhAng1 (A) and VT (B)—were incubated with either protein A sepharose beads only, bead-conjugated mouse Tie2-Fc (mTie2), or bead-conjugated human Tie2-Fc (hTie2). […] The ‘unbound’ fraction is 7% of residual/free ligands remaining in the supernatant. • C Quantitative kinetics analysis by SPR. All analytes were run at increasing concentrations of 0.625, 1.25, 2.5, 5, and 10 nM, at 37°C and pH 7.4. […] Source data are available online for this figure. […]
Semi-quantitative densitometry analysis of immunoblots was performed using the ChemiGenius2 bioimaging system and GeneSnap/GeneTools software (Syngene). […]

CHHHRHSF [Vasculotide, 4-armed maleimide-functionalized polyethylene glycol (PEG) backbone to link together four cysteine-capped T7 peptides, that is, CHHHRHSF]
pull-down by Tie2-Fc: did not pull down any appreciable levels

B1: recombinant human Ang1 (rhAng1) (ligand, UniProt Q15389 16-498, looked up)
chain: HIGCSNQRRSPENSGRRYNRIQHGQCAYTFILPEHDGNCRESTTDQYNTNALQRDAPHVEPDFSSQKLQHLEHVMENYTQWLQKLENYIVENMKSEMAQIQQNAVQNHTATMLEIGTSLLSQTAEQTRKLTDVETQVLNQTSRLEIQLLENSLSTYKLEKQLLQQTNEILKIHEKNSLLEHKILEMEGKHKEELDTLKEEKENLQGLVTRQTYIIQELEKQLNRATTNNSVLQKQQLELMDTVHNLVNLCTKEGVLLKGGKREEEKPFRDCADVYQAGFNKSGIYTIYINNMPEPKKVFCNMDVNGGGWTVIQHREDGSLDFQRGWKEYKMGFGNPSGEYWLGNEFIFAITSQRQYMLRIELMDWEGNRAYSQYDRFHIGNEKQNYRLYLKGHTGTAGKQSSLILHGADFSTKDADNDNCMCKCALMLTGGWWFDACGPSNLNGMFYTAGQNHGKLNGIKWHYFKGPSYSLRSTTMMIRPLDF
notes: angiopoietin-1, human, recombinant; also called angiopoietin-1; source: bought: R&D Systems (named for the Boyden chamber experiments)
pull-down by Tie2-Fc: effectively pulled down the majority
